Assay results from patent publication US4637999A, “Substituted cephalosporins as anti-inflammatory and antidegenerative agents” (Merck & Co., Inc., priority 1983, dated 1987).

biological target: T1, Human Polymorphonuclear Leukocyte Elastase (Homo sapiens, UniProt P08246); assay: biochemical; conditions: not given
T1 sequence (P08246 30-267): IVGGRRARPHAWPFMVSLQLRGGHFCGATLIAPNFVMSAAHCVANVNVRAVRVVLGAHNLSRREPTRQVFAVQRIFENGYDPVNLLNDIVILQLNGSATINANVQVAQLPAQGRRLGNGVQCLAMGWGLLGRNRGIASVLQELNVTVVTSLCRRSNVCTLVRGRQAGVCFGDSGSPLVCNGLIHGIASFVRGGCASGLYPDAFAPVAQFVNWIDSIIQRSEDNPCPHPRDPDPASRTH

Point of comparison: `COC(=O)C1=C(COC(C)=O)CSC2C(OC(=O)Cc3ccccc3)C(=O)N12` (centres unmarked) [R1=OCOCH2 .phi., B=OCH3], IC50 9.87 µM. Against it:
- CC(=O)OCC1=C(C(=O)OC(C)(C)C)N2C(=O)C(OC(=O)Cc3ccccc3)C2SC1 (centres unmarked) [R1=OCOCH2 .phi., B=OtBu] — within 1.5-fold, 6.7 µM

same assay, conditions: 50% inhibition of enzyme activity 2 minutes after zero time; crude PMN extract, 0.2 mM Boc-AAPAN, pH 7.5, 410 mμ; read-out: ED50 (the source's name) (converted)

Point of comparison: `COC(=O)C1=C(COC(C)=O)CSC2C(OC=O)C(=O)N12` (centres unmarked) [R1=OCHO, B=OCH3], IC50 9.51 µM. Against it:
- COC(=O)CCCOC(=O)C1=C(COC(C)=O)CSC2C(OC)C(=O)N12 (centres unmarked) [R1=OCH3, B=O(CH2)3 COOCH3] — 7.4-fold lower, 1.29 µM
- COC(=O)c1ccc(COC(=O)C2=C(COC(C)=O)CSC3C(OC)C(=O)N23)cc1 (centres unmarked) [R1=OCH3, B=OCH2 .phi.(p-COOCH3)] — 14-fold lower, 0.689 µM
- COC1C(=O)N2C(C(=O)OCC=C(C)C)=C(COC(C)=O)CSC12 (centres unmarked) [R1=OCH3, B=OCH2 CHC(CH3)2] — 3.4-fold lower, 2.81 µM
- CCOC(=O)COC(=O)C1=C(COC(C)=O)CSC2C(OC)C(=O)N12 (stereo not drawn) [R1=OCH3, B=OCH2 COOC2 H5, Ethoxycarbonylmethyl 3-acetyloxymethyl-7α-methoxy-8-oxo-5-thia-1-azabicyclo[4.2.0]oct-2-ene-2-carboxylate] — 8.9-fold lower, 1.07 µM
- COC(=O)C1=C(COC(C)=O)CSC2C(OC)C(=O)N12 (centres unmarked) [R1=OCH3, B=OCH3] — within 1.5-fold, 8.3 µM
- CO[C@H]1C(=O)N2C(C(=O)OC(C)(C)C)=C(COC(C)=O)CS[C@H]12 [R1=OCH3, B=OtBu, t-Butyl 3-acetyloxymethyl-7α-methoxy-8-oxo-5-thia-1-azabicyclo(4.2.0)oct-2-ene-2-carboxylate] — within 1.5-fold, 10.2 µM
- CC(=O)OCC1=C(C(=O)OCc2ccccc2)N2C(=O)C(OC=O)C2SC1 (centres unmarked) [R1=OCHO, B=OCH2 .phi.] — 1.9-fold lower, 5.11 µM
- COC(=O)C1=C(COC(C)=O)CSC2C(OC(=O)c3ccccc3)C(=O)N12 (centres unmarked) [R1=OCO.phi., B=OCH3] — within 1.5-fold, 12.8 µM
